Assay results from patent US20250195521A1 (Revolution Medicines, Inc., priority 2020, published 2025).
Like-named read-outs stand apart in the source and are kept apart here.

Tests used:
[1] = test system: NCI-H358 cells (K-Ras G12C); experiment: CellTiter-Glo cell viability, NCI-H358; type: cell-based, human; details: Homo sapiens, NCI-H358, 120 h, read-out: H358 Cell Viability IC50
Method in brief: (§1)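 Compounds dispensed directly onto seeded cells; on day 5 plates equilibrated ~30 min to room temperature and luminescence read. Signal normalized to DMSO average (%) and fitted by four-parameter logistic.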

[2] = test system: Capan-1 cells (K-Ras G12V); experiment: CellTiter-Glo cell viability, Capan-1; type: cell-based, human; details: Homo sapiens, CAPAN-1, 120 h, read-out: Capan-1 Cell Viability IC50
Method in brief: as §1

KRAS G12C = KRAS G12C (Homo sapiens (Human), UniProt P01116+P62937, G12C); experiment: Ras-Raf disruption/FRET/MOA assay (BRAF RBD, Cyclophilin A); type: biochemical; details: read-out: KRAS G12C FRET IC50
KRAS G12C, sequence (P01116-2 other isoform, or with tags, fused parts or gaps G12C): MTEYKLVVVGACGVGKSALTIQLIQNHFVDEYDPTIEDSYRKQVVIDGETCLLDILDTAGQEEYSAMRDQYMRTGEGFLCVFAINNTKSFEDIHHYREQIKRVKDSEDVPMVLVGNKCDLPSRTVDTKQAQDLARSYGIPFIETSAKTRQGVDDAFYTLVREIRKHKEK
KRAS G12C, sequence (P62937 whole entry): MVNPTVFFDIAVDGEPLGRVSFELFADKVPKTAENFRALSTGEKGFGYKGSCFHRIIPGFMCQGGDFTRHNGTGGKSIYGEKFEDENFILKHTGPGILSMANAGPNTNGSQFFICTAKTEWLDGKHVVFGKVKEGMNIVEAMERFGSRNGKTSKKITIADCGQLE
Method in brief: (§2)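 TR-FRET readout: anti-His Eu-W1024 (10 nM) and anti-GST allophycocyanin (50 nM) added after 3 h, 25° C compound incubation, then 1.5 h more. Decrease in FRET ratio versus DMSO wells marks Ras:RAF disruption; IC50 reported.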

KRAS G12D = KRAS G12D (Homo sapiens (Human), UniProt P01116+P62937, G12D); experiment: as above; type: biochemical; details: read-out: KRAS G12D FRET IC50
KRAS G12D, sequence (P01116 other isoform, or with tags, fused parts or gaps G12D): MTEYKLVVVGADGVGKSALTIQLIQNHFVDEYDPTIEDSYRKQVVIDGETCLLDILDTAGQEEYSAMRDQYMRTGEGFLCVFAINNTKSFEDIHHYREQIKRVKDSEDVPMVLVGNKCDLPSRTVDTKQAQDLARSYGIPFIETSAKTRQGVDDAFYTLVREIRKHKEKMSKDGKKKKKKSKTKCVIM
KRAS G12D, sequence (P62937 whole entry): as the sequence (P62937 whole entry) above
Method in brief: as §2

KRAS G12S = KRAS G12S (Homo sapiens (Human), UniProt P01116+P62937, G12S); experiment: as above; type: biochemical; details: read-out: KRAS G12S FRET IC50
KRAS G12S, sequence (P01116 other isoform, or with tags, fused parts or gaps G12S): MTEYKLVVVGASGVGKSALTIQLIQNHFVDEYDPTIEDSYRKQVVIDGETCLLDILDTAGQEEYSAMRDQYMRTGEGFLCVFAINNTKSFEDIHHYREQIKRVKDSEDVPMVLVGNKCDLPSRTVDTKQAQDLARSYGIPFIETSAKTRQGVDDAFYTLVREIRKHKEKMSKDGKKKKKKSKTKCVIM
KRAS G12S, sequence (P62937 whole entry): as the sequence (P62937 whole entry) above
Method in brief: as §2

KRAS G12V = KRAS G12V (Homo sapiens (Human), UniProt P01116+P62937, G12V); experiment: as above; type: biochemical; details: read-out: KRAS G12V FRET IC50
KRAS G12V, sequence (P01116 other isoform, or with tags, fused parts or gaps G12V): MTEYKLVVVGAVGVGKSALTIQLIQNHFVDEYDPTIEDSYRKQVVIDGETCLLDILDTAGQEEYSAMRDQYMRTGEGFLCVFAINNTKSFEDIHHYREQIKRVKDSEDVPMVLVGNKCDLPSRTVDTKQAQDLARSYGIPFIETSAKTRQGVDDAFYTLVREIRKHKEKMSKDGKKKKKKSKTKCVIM
KRAS G12V, sequence (P62937 whole entry): as the sequence (P62937 whole entry) above
Method in brief: as §2

KRAS G13C = KRAS G13C (Homo sapiens (Human), UniProt P01116+P62937, G13C); experiment: as above; type: biochemical; details: read-out: KRAS G13C FRET IC50
KRAS G13C, sequence (P01116 other isoform, or with tags, fused parts or gaps G13C): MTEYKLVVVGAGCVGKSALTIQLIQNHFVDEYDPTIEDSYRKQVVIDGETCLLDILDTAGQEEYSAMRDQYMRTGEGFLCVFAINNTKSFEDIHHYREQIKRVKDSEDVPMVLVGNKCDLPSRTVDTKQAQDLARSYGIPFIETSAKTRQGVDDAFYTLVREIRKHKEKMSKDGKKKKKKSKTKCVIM
KRAS G13C, sequence (P62937 whole entry): as the sequence (P62937 whole entry) above
Method in brief: as §2

KRAS G13D = KRAS G13D (Homo sapiens (Human), UniProt P01116+P62937, G13D); experiment: as above; type: biochemical; details: read-out: KRAS G13D FRET data IC50
KRAS G13D, sequence (P01116 other isoform, or with tags, fused parts or gaps G13D): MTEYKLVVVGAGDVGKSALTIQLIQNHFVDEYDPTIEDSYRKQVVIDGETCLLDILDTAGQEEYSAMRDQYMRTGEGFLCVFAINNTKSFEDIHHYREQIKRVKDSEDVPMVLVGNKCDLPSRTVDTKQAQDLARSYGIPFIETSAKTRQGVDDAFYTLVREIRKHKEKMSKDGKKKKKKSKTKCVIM
KRAS G13D, sequence (P62937 whole entry): as the sequence (P62937 whole entry) above
Method in brief: as §2

KRAS Q61H = KRAS Q61H (Homo sapiens (Human), UniProt P01116+P62937, Q61H); experiment: as above; type: biochemical
KRAS Q61H, sequence (P01116 other isoform, or with tags, fused parts or gaps Q61H): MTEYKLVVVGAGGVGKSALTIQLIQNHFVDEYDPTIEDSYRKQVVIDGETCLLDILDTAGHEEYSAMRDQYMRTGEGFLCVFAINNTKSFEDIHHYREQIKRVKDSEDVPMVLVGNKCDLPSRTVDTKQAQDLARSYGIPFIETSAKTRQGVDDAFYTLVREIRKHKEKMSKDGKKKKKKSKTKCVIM
KRAS Q61H, sequence (P62937 whole entry): as the sequence (P62937 whole entry) above
Method in brief: as §2

KRAS WT = KRAS WT (Homo sapiens (Human), UniProt P01116+P62937); experiment: as above; type: biochemical; details: read-out: KRAS WT FRET data IC50
KRAS WT, sequence (P01116 other isoform, or with tags, fused parts or gaps): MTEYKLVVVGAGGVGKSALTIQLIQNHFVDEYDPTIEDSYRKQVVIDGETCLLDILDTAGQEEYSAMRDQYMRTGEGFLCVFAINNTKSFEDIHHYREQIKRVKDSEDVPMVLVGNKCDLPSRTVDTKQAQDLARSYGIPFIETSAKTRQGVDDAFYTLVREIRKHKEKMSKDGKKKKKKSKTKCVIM
KRAS WT, sequence (P62937 whole entry): as the sequence (P62937 whole entry) above
Method in brief: as §2

NRAS G12C = NRAS G12C (Homo sapiens (Human), UniProt P01111+P62937, G12C); experiment: as above; type: biochemical; details: read-out: NRAS G12C FRET data IC50
NRAS G12C, sequence (P01111 whole entry G12C): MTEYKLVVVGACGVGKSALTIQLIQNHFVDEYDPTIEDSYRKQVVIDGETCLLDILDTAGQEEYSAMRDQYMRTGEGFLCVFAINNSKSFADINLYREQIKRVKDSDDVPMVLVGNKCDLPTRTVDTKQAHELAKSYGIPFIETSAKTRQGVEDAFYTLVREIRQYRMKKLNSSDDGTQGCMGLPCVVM
NRAS G12C, sequence (P62937 whole entry): as the sequence (P62937 whole entry) above
Method in brief: (§3)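 First, 25 μM Cyclophilin A, 12.5 nM His6-Ras-GMPPNP and 50 nM GST-BRAF RBD are mixed with diluted compound at pH 7.3. Next, 3 h at 25° C. Then 10 nM anti-His Eu-W1024 plus 50 nM anti-GST allophycocyanin for 1.5 h before TR-FRET reading.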

NRAS Q61R = NRAS Q61R (Homo sapiens (Human), UniProt P01111+P62937, Q61R); experiment: as above; type: biochemical
NRAS Q61R, sequence (P01111 whole entry Q61R): as the sequence (P01111 whole entry G12C) above, with C12G, Q61R counted along it
NRAS Q61R, sequence (P62937 whole entry): as the sequence (P62937 whole entry) above
Method in brief: as §3

NRAS WT = NRAS WT (Homo sapiens (Human), UniProt P01111+P62937); experiment: as above; type: biochemical
NRAS WT, sequence (P01111 whole entry): as the sequence (P01111 whole entry G12C) above, with C12G counted along it
NRAS WT, sequence (P62937 whole entry): as the sequence (P62937 whole entry) above
Method in brief: as §3

[3] = test system: K-Ras G12C (NCI-H358 cells); experiment: Potency assay: pERK in NCI-H358 cells; type: cell-based, human; details: Homo sapiens, read-out: pERK EC50 (H358 KRAS G12C)
Method in brief: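 Cells plated the day before were exposed for 4 h at 37° C, 5% CO2 to a 10-point, 3-fold DMSO dilution series (10 mM top stock), in duplicate. Phospho-ERK was read by AlphaLISA SureFire Ultra or by In-Cell Western with DRAQ5 DNA stain, and IC50 came from a 4-parameter sigmoidal fit.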

IC50 ([1]; K-Ras G12C, 5-day treatment) | IC50 (KRAS G12C) | IC50 (KRAS G12D) | IC50 (KRAS G12S) | IC50 (KRAS G12V) | IC50 (KRAS G13C) | IC50 (KRAS G13D) | IC50 (KRAS Q61H) | IC50 (KRAS WT) | IC50 (NRAS G12C) | IC50 (NRAS Q61R) | IC50 (NRAS WT) | EC50 ([3]; NCI-H358 cells, 4 hours) | Compound | IC50 ([2]; K-Ras G12V, 5-day treatment) | IC50 [1] | IC50 [2] | EC50 ([3]; NCI-H358, 4 h)
10 to 100 nM | 100 to 1000 nM | 1000 to 10000 nM | 100 to 1000 nM | 100 to 1000 nM | 100 to 1000 nM | 1000 to 10000 nM | 100 to 1000 nM | 100 to 1000 nM | 100 to 1000 nM | 100 to 1000 nM | 100 to 1000 nM | < 5000 nM | CCn1c(-c2cccnc2[C@H](C)OC)c2c3cc(ccc31)-c1csc(n1)C[C@H](NC(=O)[C@H](C(C)C)N(C)C(=O)N1CC3(CC(N(C)C4COC4)C3)C1)C(=O)N1CCC[C@H](N1)C(=O)OCC(C)(C)C2 [Compound A511] | 10 to 100 nM | – | – | –
10 to 100 nM | 100 to 1000 nM | 1000 to 10000 nM | 100 to 1000 nM | 100 to 1000 nM | 100 to 1000 nM | 100 to 1000 nM | 100 to 1000 nM | 100 to 1000 nM | 100 to 1000 nM | 100 to 1000 nM | 100 to 1000 nM | – | CCn1c(-c2cccnc2[C@H](C)OC)c2c3cc(ccc31)-c1csc(n1)C[C@H](NC(=O)[C@H](C(C)C)N(C)C(=O)N1CC3(CC(NCCOC)C3)C1)C(=O)N1CCC[C@H](N1)C(=O)OCC(C)(C)C2 [Compound A512] | 10 to 100 nM | – | – | –
10 to 100 nM | 10 to 100 nM | 100 to 1000 nM | 100 to 1000 nM | 100 to 1000 nM | 100 to 1000 nM | 100 to 1000 nM | 10 to 100 nM | 100 to 1000 nM | 10 to 100 nM | 100 to 1000 nM | 100 to 1000 nM | – | CCn1c(-c2cccnc2[C@H](C)OC)c2c3cc(ccc31)-c1csc(n1)C[C@H](NC(=O)[C@H](C(C)C)N(C)C(=O)N(C)CCc1ccncc1)C(=O)N1CCC[C@H](N1)C(=O)OCC(C)(C)C2 [Compound A557] | 100 to 1000 nM | – | – | –
10 to 100 nM | 10 to 100 nM | 100 to 1000 nM | 100 to 1000 nM | 100 to 1000 nM | 100 to 1000 nM | 100 to 1000 nM | 100 to 1000 nM | 100 to 1000 nM | 10 to 100 nM | 100 to 1000 nM | 100 to 1000 nM | – | CCn1c(-c2cccnc2[C@H](C)OC)c2c3cc(ccc31)-c1csc(n1)C[C@H](NC(=O)[C@H](C(C)C)N(C)C(=O)N1CC(CN(C)C)C1)C(=O)N1CCC[C@H](N1)C(=O)OCC(C)(C)C2 [Compound A576] | 10 to 100 nM | – | – | –
10 to 100 nM | 10 to 100 nM | 100 to 1000 nM | 100 to 1000 nM | 100 to 1000 nM | 100 to 1000 nM | 100 to 1000 nM | 10 to 100 nM | 100 to 1000 nM | 10 to 100 nM | 100 to 1000 nM | 10 to 100 nM | – | CCn1c(-c2cccnc2[C@H](C)OC)c2c3cc(ccc31)-c1csc(n1)C[C@H](NC(=O)[C@H](C(C)C)N(C)C(=O)N1CCO[C@@H](CN(C)C)C1)C(=O)N1CCC[C@H](N1)C(=O)OCC(C)(C)C2 [Compound A591] | 10 to 100 nM | – | – | –

Compound | IC50 ([1]; K-Ras G12C, 5-day treatment) | IC50 (KRAS G12C) | IC50 (KRAS G12D) | IC50 (KRAS G12S) | IC50 (KRAS G12V) | IC50 (KRAS G13C) | IC50 (KRAS G13D) | IC50 (KRAS Q61H) | IC50 (KRAS WT) | IC50 (NRAS G12C) | IC50 (NRAS Q61R) | IC50 (NRAS WT) | EC50 ([3]; NCI-H358 cells, 4 hours) | IC50 ([2]; K-Ras G12V, 5-day treatment) | IC50 [1] | IC50 [2] | EC50 ([3]; NCI-H358, 4 h)
CCn1c(-c2cccnc2[C@H](C)OC)c2c3cc(ccc31)-c1csc(n1)C[C@H](NC(=O)[C@H](C(C)C)N(C)C(=O)N1C3COCC1C3)C(=O)N1CCC[C@H](N1)C(=O)OCC(C)(C)C2 [Compound A540] | – | 10 to 100 nM | 1000 to 10000 nM | 100 to 1000 nM | 100 to 1000 nM | 100 to 1000 nM | 100 to 1000 nM | 10 to 100 nM | 100 to 1000 nM | 10 to 100 nM | 100 to 1000 nM | 100 to 1000 nM | – | – | 10 to 100 nM | 10 to 100 nM | < 5000 nM
CCn1c(-c2cccnc2[C@H](C)OC)c2c3cc(ccc31)-c1csc(n1)C[C@H](NC(=O)[C@H](C(C)C)N(C)C(=O)N1CCC[C@H](N(C)C)C1)C(=O)N1CCC[C@H](N1)C(=O)OCC(C)(C)C2 [Compound A569] | – | 10 to 100 nM | 100 to 1000 nM | 100 to 1000 nM | 100 to 1000 nM | 100 to 1000 nM | 100 to 1000 nM | 10 to 100 nM | 100 to 1000 nM | 10 to 100 nM | 100 to 1000 nM | 10 to 100 nM | – | – | 10 to 100 nM | 10 to 100 nM | –
